# Measured values taken from US20220133740A1, “VALPROIC ACID COMPOUNDS AND WNT AGONISTS FOR TREATING EAR DISORDERS” (Frequency Therapeutics, Inc., priority 2019, published 2022).
# Entries after “also recorded” stand apart in the source; their conditions may differ. Read-outs that look alike come from different tables or passages of the source.
# Legend:
# GSK3-alpha [1] = target: T1, GSK3-alpha (Homo sapiens, UniProt P49840); details: cited from earlier work; for GSK-3 alpha: Table 5
# Lgr5+ cells = assay: Lgr5+ Assay; assay type: cell-based; details: Table 5
# GSK3-beta = GSK3-beta (Homo sapiens, UniProt P49841); details: cited from earlier work
# Sequence of GSK3-beta (P49841 whole entry): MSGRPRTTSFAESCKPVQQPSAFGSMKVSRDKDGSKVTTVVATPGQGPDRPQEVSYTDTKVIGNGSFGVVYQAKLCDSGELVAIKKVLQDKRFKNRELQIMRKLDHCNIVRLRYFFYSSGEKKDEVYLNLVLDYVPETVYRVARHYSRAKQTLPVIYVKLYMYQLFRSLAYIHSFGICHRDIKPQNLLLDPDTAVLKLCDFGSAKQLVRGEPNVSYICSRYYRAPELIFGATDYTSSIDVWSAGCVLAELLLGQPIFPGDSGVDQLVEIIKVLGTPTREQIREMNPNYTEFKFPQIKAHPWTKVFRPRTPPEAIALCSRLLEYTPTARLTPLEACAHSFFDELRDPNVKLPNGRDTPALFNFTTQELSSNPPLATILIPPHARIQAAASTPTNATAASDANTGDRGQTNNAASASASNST
# GSK3-alpha [2] = target: T1, GSK3-alpha; assay: GSK3-alpha inhibitor potency (Tables 2 and 5); assay type: biochemical
# [3] = Blood/plasma valproic acid levels after intravenous sodium valproate; assay type: in vivo; details: guinea pig, i.v. 100 mg/mL sodium valproate at 20 μL/min for 60 minutes (120 mg, about 330 mg/kg); FIG. 2A
# [4] = Perilymph valproic acid along the cochlea (sequential apical sampling) after systemic sodium valproate; assay type: in vivo; details: guinea pig, perilymph at 3 hours, therapeutic level as determined in vitro on primary cochlear Lgr5 cells
# [5] = Perilymph valproic acid after systemic plus local administration versus local-only administration; assay type: in vivo; details: guinea pig, i.v. 25 mg/mL sodium valproate plus 20 μL poloxamer formulation (sodium valproate 88.63 mg/mL, CHIR99021 3.14 mg/mL) at round window niche, perilymph at 3 hours; FIG. 4
# T1 sequence (P49840 whole entry): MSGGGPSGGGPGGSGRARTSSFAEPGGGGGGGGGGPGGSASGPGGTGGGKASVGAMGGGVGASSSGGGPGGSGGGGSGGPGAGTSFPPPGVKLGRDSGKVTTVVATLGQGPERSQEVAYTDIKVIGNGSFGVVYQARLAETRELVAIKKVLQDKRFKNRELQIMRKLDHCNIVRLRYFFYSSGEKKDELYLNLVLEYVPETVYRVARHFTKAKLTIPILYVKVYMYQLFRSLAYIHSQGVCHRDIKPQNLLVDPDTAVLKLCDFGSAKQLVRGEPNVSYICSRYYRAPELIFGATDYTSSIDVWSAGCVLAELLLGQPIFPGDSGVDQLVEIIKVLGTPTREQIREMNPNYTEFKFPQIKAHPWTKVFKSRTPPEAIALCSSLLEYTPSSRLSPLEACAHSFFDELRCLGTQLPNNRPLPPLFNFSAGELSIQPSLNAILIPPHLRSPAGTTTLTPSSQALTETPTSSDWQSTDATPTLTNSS
Compound,Potency (nM) GSK3-alpha (GSK3-alpha [1]; Table 2) [nM],Potency (nM) GSK3-beta (GSK3-beta; Table 2) [nM],further results
"N#Cc1ccc2c(c1)/C(=C1\C=CC(CN3CCOCC3)=CN1)C(=O)N2 [AZD1080, (Z)-3-(5-(morpholinomethyl)pyridin-2(1H)-ylidene)-2-oxoindoline-5-carbonitrile]",6.9,,GSK-3 alpha (GSK3-alpha [1]): 6.9 nM; Lgr5 + Assay (Lgr5+ cells): 1 to 5 µM
"COc1ccccc1[C@@H]1C2=C(CC(C)(C)CC2=O)N=C2NNC(C(F)(F)F)=C21 [BRD1172, (R)-4-(2-methoxyphenyl)-7,7-dimethyl-3-(trifluoromethyl)-1,2,4,6,7,8-hexahydro-5H-pyrazolo[3,4-b]quinolin-5-one]",,,Potency (nM) GSK3-beta (GSK3-beta): 10 nM; Potency (nM) GSK3-alpha (GSK3-alpha [1]): 3 nM; Ratio of alpha to beta (GSK3-alpha [2]): 3.3
"CC1(C)CC(=O)C2=C(C1)Nc1n[nH]c(C(F)(F)F)c1[C@]2(C)c1ccccc1 [BRD1652, N-4,7,7-trimethyl-4-phenyl-3-(trifluoromethyl)-2,4,6,7,8,9-hexahydro-5H-pyrazolo[3,4-b]quinolin-5-one]",0.4,4,
"Cc1cnc(-c2cnc(NCCNc3ccc(C#N)cn3)nc2-c2ccc(Cl)cc2Cl)[nH]1 [CHIR99021, 6-[[2-[[4-(2,4-dichlorophenyl)-5-(5-methyl-1H-imidazol-2-yl)-2-pyrimidinyl]amino]ethyl]amino]-3-pyridinecarbonitrile]",,,Lgr5 + Assay (Lgr5+ cells): 2 to 6 µM
"Cn1cc(C2=C(c3cccc(N)c3)C(=O)NC2=O)c2ccccc21 [Compound 3, 3-(3-aminophenyl)-4-(1-methyl-1H-indol-3-yl)-1H-pyrrole-2,5-dione]",3,10,
"CO[C@H]1CC[C@H](NC(=O)c2n[nH]cc2NC(=O)C2CCC(F)(F)CC2)CC1 [Compound 4a, 4-(4,4-difluorocyclohexane-1-carboxamido)-N-((1r,4r)-4-metboxycyclohexyl)-1H-pyrazole-3-carboxamide]",,8,
"CO[C@H]1CC[C@H](NC(=O)c2n[nH]cc2NC(=O)c2ccc(N3CCN(C)CC3)cc2)CC1 [Compound 4t, N-((1r,4r)-4-methoxycyclohexyl)-4-(4-(4-methylpiperazin-1-yl)benzamido)-1H-pyrazole-3-carboxamide]",,<5,
"CO[C@H]1CC[C@H](NC(=O)c2n[nH]cc2NC(=O)c2ncoc2-c2ccccc2)CC1 [Compound 4z, N-(3-(((1r,4r)-4-methoxycyclohexyl)carbamoyl)-1H-pyrazol-4-yl)-5-phenyloxazole-4-carboxamide]",,5,
"Cc1[nH]nc2c1C(c1cccc(F)c1)C1=C(CC(C)(C)CC1=O)N2 (stereo not drawn) [Compound 9, 4-(3-fluorophenyl)-3,7,7-trimethyl-2,4,6,7,8,9-hexahydro-5H-pyrazolo[3,4-b]quinolin-5-one]",62,156,
"Cc1ccccc1C1C2=C(CC(C)(C)CC2=O)Nc2n[nH]c(C)c21 (stereo not drawn) [Compound 11, 3,7,7-trimethyl-4-(o-tolyl)-2,4,6,7,8,9-hexahydro-5H-pyrazolo[3,4-b]quinolin-5-one]",32,102,
"Cc1[nH]nc2c1[C@](C)(c1ccccc1)C1=C(CC(C)(C)CC1=O)N2 [Compound 16, (S)-3,4,7,7-tetramethyl-4-phenyl-2,4,6,7,8,9-hexahydro-5H-pyrazolo[3,4-b]quinolin-5-one]",8,26,
"COc1ccc(-c2cnc3[nH]cc(/C=C/C(=O)NCc4ccncc4)cc2-3)cc1 [Compound 27, (E)-3-(3-(4-methoxyphenyl)-7H-pyrrolo[2,3-b]pyridin-5-yl)-N-(pyridin-4-ylmethyl)acrylamide]",42,140,
"c1ccc(Nc2ncc3nnn(-c4ccccc4)c3n2)cc1 [Compound 90, N,3-diphenyl-3H-[1,2,3]triazolo[4,5-d]pyrimidin-5-amine]",330,628,
"O=C(O)COc1ccc(Nc2ncc3nnn(-c4ccccc4)c3n2)cc1 [Compound 92, 2-(4-((3-phenyl-3H-[1,2,3]triazolo[4,5-d]pyrimidin-5-yl)amino)phenoxy)acetic acid]",9,13,
"Cc1ccc(C(=O)Nc2c[nH]nc2C(=O)NCCCOC(C)C)cn1 [GSK-3 Inhibitor XXII, 6-methyl-N-[3-[[3-(1-methylethoxy)propyl]carbamoyl]-1H-pyrazol-4-yl]pyridine-3-carboxamide]",2.3,,GSK-3 alpha (GSK3-alpha [1]): 2.3 nM; Lgr5 + Assay (Lgr5+ cells): 0.2 to 1 µM
"O=C1NC(=O)C(c2cnc3ccccn23)=C1c1cn2c3c(cc(F)cc13)CN(C(=O)N1CCCCC1)CC2 [LY2090314, 3-(9-fluoro-2-(piperidine-1-carbonyl)-1,2,3,4-tetrahydro-[1,4]diazepino[6,7,1-hi]indol-7-yl)-4-(imidazo[1,2-a]pyridin-3-yl)-1H-pyrrole-2,5-dione]",,,GSK3-beta potency (GSK3-beta; Table 5): 0.9 nM; GSK-3 alpha (GSK3-alpha [1]): 2.1 nM; Lgr5 + Assay (Lgr5+ cells): 0.005 to 0.02 µM
"CCCC(CCC)C(=O)[O-].[Na+] [Sodium Valproate, sodium 2-propylpentanoate]",,,"time at which plasma levels peaked [3]: ≤ 1 h; distribution and level of valproate in cochlear perilymph ([4]; i.v. 25 mg/mL sodium valproate at 20 μL/min for 60 min (about 26 mg valproate)): did not achieve therapeutic levels; distribution and level of valproate in cochlear perilymph (apex to base, serial samples 1-4) ([4]; i.v. 100 mg/mL sodium valproate at 20 μL/min for 60 min): Uniform distribution of valproate was observed throughout the cochlea at 3 hours; also recorded: uniform distribution and therapeutic levels"
"O=C1NC(=O)[C@@H](c2cn3c4c(cccc24)CCC3)[C@@H]1c1c[nH]c2ccccc12 [Tivantinib, (3R,4R)-3-(5,6-dihydro-4H-pyrrolo[3,2,1-ij]quinolin-1-yl)-4-(1H-indol-3-yl)pyrrolidine-2,5-dione]",659,1865,
"CCCC(CCC)C(=O)O [Valproic Acid, 2-propyl pentanoic acid]",,,"perilymph valproic acid distribution and retention, systemic plus local versus local-only administration [5]: improved the drug distribution and retention in guinea pig cochlea"
"(3-aminopyrido[2,3-a]pyrrolo[3,4-c]carbazole-5,7(1H,6H)-dionato-κN^1,κN^12)carbonylchloro(2-pyridinemethanamine-κN^1,κN^2)-, (OC-6-24-A)-Ruthenium [lambda-OS1]",0.9,6,
"carbonyl(η^5-2,4-cyclopentadien-1-yl)(9-hydroxypyrido[2,3-a]pyrrolo[3,4-c]carbazole-5,7(1H,6H)-dionato-κN^1,κN^12)-Ruthenium [(R)-DW12]",0.5,1,
